Measured values from article PMC6222422, “Synthesis and Biological Evaluation of Novel Indole-Derived Thioureas” (Molecules : A Journal of Synthetic Chemistry and Natural …, 2018).
Values after ≈ are worked out from the molar mass of the structure shown.

Legend:
Reo-1 = experiment: microbe, parasite or virus in culture; type: cell-based, reovirus type-1; conditions: Reovirus sp., BHK, read-out: Reo-1 EC50
[1] = tested on: S. epidermidis ATCC 12228; experiment: MIC, twofold serial agar dilution; type: cell-based; conditions: Staphylococcus epidermidis, ATCC12228, 18 h, 35 °C, read-out: minimal inhibitory concentrations (MIC)
VSV = experiment: microbe, parasite or virus in culture; type: cell-based; conditions: Vesicular stomatitis virus, Vero 76, read-out: VSV EC50
[2] = tested on: S. epidermidis ATCC 12228; experiment: disc diffusion method; type: cell-based, Staphylococcus epidermidis; conditions: Staphylococcus epidermidis, ATCC12228, applied 400 µg per disc, dash = lack of the growth inhibition area, read-out: diameter of growth inhibitory zone (GIZ)
in vitro [3] = conditions: human
in vitro [4] = conditions: cattle (Bos taurus)
S. aureus NCTC 4163 [5] = experiment: MIC, twofold serial agar dilution; type: cell-based; conditions: Staphylococcus aureus, NCTC4163, 18 h, 35 °C, read-out: minimal inhibitory concentrations (MIC)
M. luteus ATCC 10240 [6] = experiment: disc diffusion method; type: cell-based, Micrococcus luteus; conditions: Micrococcus luteus, ATCC10240, applied 400 µg per disc, dash = lack of the growth inhibition area, read-out: diameter of growth inhibitory zone (GIZ)
S. aureus ATCC 6538 [7] = experiment: MIC, twofold serial agar dilution; type: cell-based; conditions: Staphylococcus aureus, ATCC6538, 18 h, 35 °C, read-out: minimal inhibitory concentrations (MIC)
in vitro [8] = conditions: Syrian hamster (Mesocricetus auratus)
S. aureus NCTC 4163 [9] = experiment: disc diffusion method; type: cell-based, Staphylococcus aureus; conditions: Staphylococcus aureus, NCTC4163, applied 400 µg per disc, dash = lack of the growth inhibition area, read-out: diameter of growth inhibitory zone (GIZ)
S. aureus ATCC 25923 [10] = experiment: disc diffusion method; type: cell-based, Staphylococcus aureus; conditions: Staphylococcus aureus, ATCC25923, applied 400 µg per disc, dash = lack of the growth inhibition area, read-out: diameter of growth inhibitory zone (GIZ)
HSV-1 = experiment: microbe, parasite or virus in culture; type: cell-based, human herpes 1; conditions: Human alphaherpesvirus 1, Vero 76, read-out: HSV-1 EC50
S. aureus ATCC 29213 = experiment: MIC, twofold serial agar dilution; type: cell-based; conditions: Staphylococcus aureus, ATCC29213, 18 h, 35 °C, read-out: minimal inhibitory concentrations (MIC)
B. subtilis ATCC 6633 [11] = experiment: disc diffusion method; type: cell-based, Bacillus subtilis; conditions: Bacillus subtilis, ATCC6633, applied 400 µg per disc, dash = lack of the growth inhibition area, read-out: diameter of growth inhibitory zone (GIZ)
YFV = experiment: microbe, parasite or virus in culture; type: cell-based; conditions: Yellow fever virus, BHK, read-out: YFV EC50
S. aureus ATCC 25923 [12] = experiment: MIC, twofold serial agar dilution; type: cell-based; conditions: Staphylococcus aureus, ATCC25923, 18 h, 35 °C, read-out: minimal inhibitory concentrations (MIC)
CV-B5 = experiment: microbe, parasite or virus in culture; type: cell-based, coxsackievirus B5; conditions: Enterovirus B, CVB5, Vero 76, read-out: CV-B5 EC50
B. cereus ATCC 11778 = experiment: MIC, twofold serial agar dilution; type: cell-based; conditions: Bacillus cereus, ATCC11778, 18 h, 35 °C, read-out: minimal inhibitory concentrations (MIC)
S. epidermidis (MRSE) = experiment: MIC against hospital strains; conditions: Staphylococcus epidermidis
S. aureus ATCC 6538 [13] = experiment: disc diffusion method; type: cell-based, Staphylococcus aureus; conditions: Staphylococcus aureus, ATCC6538, applied 400 µg per disc, dash = lack of the growth inhibition area, read-out: diameter of growth inhibitory zone (GIZ)
BVDV = experiment: microbe, parasite or virus in culture; type: cell-based, bovine viral diarrhoea virus; conditions: Bovine viral diarrhea virus isolates and strains, MDBK, in Bos taurus, read-out: BVDV EC50
B. subtilis ATCC 6633 [14] = experiment: MIC, twofold serial agar dilution; type: cell-based; conditions: Bacillus subtilis, ATCC6633, 18 h, 35 °C, read-out: minimal inhibitory concentrations (MIC)
in vitro [15] = conditions: African green monkey (Cercopithecus aethiops)
Sb-1 = experiment: microbe, parasite or virus in culture; type: cell-based, poliovirus type-1; conditions: Enterovirus C, Vero 76, read-out: Sb-1 EC50
VV = experiment: microbe, parasite or virus in culture; type: cell-based; conditions: Orthopoxvirus vaccinia, Vero 76, read-out: VV EC50
M. luteus ATCC 10240 [16] = experiment: MIC, twofold serial agar dilution; type: cell-based; conditions: Micrococcus luteus, ATCC10240, 18 h, 35 °C, read-out: minimal inhibitory concentrations (MIC)
[17] = tested on: hospital methicillin-susceptible strains of S. aureus (MSSA); experiment: MIC against hospital strains; conditions: Staphylococcus aureus
S. aureus DNA gyrase = S. aureus DNA gyrase (Staphylococcus aureus, UniProt P0A0K8+P20831); experiment: S. aureus DNA gyrase supercoiling assay; type: biochemical
[18] = hospital S. epidermidis MRSE strain 430/11
[19] = hospital S. epidermidis MRSE strain 431/11
[20] = hospital S. epidermidis MRSE strain 432/11
[21] = hospital S. epidermidis MRSE strain 433/11
[22] = hospital S. epidermidis MRSE strain 434/11
[23] = hospital S. epidermidis MRSE strain 435/11
[24] = hospital S. epidermidis MRSE strain 436/11
[25] = hospital S. epidermidis MRSE strain 437/11
[26] = hospital S. epidermidis MRSE strain 438/11
[27] = hospital S. epidermidis MRSE strain 439/11
[28] = hospital S. aureus MSSA strain 440/11
[29] = hospital S. aureus MSSA strain 441/11
[30] = hospital S. aureus MSSA strain 442/11
[31] = hospital S. aureus MSSA strain 443/11
[32] = hospital S. aureus MSSA strain 444/11
[33] = hospital S. aureus MSSA strain 445/11
[34] = hospital S. aureus MSSA strain 446/11
[35] = hospital S. aureus MSSA strain 447/11
[36] = hospital S. aureus MSSA strain 448/11
[37] = hospital S. aureus MSSA strain 449/11

Chain of S. aureus DNA gyrase (P0A0K8 whole entry): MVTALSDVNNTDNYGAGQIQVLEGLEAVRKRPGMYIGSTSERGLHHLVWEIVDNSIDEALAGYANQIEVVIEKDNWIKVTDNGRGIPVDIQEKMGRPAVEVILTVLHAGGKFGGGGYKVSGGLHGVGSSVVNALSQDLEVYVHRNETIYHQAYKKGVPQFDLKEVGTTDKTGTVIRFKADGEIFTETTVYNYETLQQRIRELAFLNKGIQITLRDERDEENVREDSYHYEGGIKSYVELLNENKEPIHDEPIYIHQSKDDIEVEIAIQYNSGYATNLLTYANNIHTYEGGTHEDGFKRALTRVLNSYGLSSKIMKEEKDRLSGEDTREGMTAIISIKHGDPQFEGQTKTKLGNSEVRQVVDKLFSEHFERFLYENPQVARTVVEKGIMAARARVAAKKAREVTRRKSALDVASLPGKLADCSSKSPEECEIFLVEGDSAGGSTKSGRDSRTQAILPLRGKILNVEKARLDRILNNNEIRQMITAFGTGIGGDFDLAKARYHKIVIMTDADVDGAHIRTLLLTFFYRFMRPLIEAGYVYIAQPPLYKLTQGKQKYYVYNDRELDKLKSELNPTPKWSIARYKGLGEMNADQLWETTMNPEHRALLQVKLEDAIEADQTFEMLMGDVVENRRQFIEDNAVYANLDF
Chain of S. aureus DNA gyrase (P20831 whole entry): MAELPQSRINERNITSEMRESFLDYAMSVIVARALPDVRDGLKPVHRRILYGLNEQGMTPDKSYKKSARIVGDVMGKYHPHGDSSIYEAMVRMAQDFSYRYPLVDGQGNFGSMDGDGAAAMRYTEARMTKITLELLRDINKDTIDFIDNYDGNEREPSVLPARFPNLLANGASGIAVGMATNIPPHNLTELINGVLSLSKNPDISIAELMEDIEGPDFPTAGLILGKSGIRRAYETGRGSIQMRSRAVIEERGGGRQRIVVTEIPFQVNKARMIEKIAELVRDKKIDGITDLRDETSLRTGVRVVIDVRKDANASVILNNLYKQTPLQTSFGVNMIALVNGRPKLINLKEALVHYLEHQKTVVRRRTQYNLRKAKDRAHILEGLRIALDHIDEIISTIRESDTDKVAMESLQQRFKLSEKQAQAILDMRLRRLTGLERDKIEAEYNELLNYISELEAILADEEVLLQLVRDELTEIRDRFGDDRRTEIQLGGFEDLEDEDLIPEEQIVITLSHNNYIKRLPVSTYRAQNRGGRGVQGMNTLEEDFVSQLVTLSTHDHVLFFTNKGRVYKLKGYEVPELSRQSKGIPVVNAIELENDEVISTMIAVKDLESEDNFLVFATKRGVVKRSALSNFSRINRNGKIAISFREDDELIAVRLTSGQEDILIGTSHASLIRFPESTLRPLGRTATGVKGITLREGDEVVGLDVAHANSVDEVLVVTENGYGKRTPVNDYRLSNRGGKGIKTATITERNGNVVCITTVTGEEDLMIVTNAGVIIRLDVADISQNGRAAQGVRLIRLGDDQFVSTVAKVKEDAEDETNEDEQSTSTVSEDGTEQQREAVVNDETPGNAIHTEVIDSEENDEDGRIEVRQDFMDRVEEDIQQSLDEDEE

## S=C(NCCc1c[nH]c2ccccc12)Nc1ccc(Cl)c(Cl)c1 [Compound 6, 1-(2-(1H-indol-3-yl)ethyl)-3-(3,4-dichlorophenyl)thiourea]
Reo-1
  EC50: > 10 µM
[1]
  MIC: 12.5 µg/mL (≈ 34.3 µM)
VSV
  EC50: > 13 µM
other
  melting point: 168 to 169 °C
[2]
  zone of inhibition at 400 µg/disc: 16 mm
In vitro [3]
  CC50: 45 µM
In vitro [4]
  CC50: 27 µM
S. aureus NCTC 4163 [5]
  MIC: 6.25 µg/mL (≈ 17.2 µM)
M. luteus ATCC 10240 [6]
  zone of inhibition at 400 µg/disc: 23 mm
S. aureus ATCC 6538 [7]
  MIC: 12.5 µg/mL (≈ 34.3 µM)
In vitro [8]
  CC50: 10 µM
S. aureus NCTC 4163 [9]
  zone of inhibition at 400 µg/disc: 10 mm
S. aureus ATCC 25923 [10]
  zone of inhibition at 400 µg/disc: 15 mm
HSV-1
  EC50: > 13 µM
S. aureus ATCC 29213
  MIC: 6.25 µg/mL (≈ 17.2 µM)
B. subtilis ATCC 6633 [11]
  zone of inhibition at 400 µg/disc: 15 mm
YFV
  EC50: > 10 µM
S. aureus ATCC 25923 [12]
  MIC: 6.25 µg/mL (≈ 17.2 µM)
CV-B5
  EC50: > 13 µM
B. cereus ATCC 11778
  MIC: 6.25 µg/mL (≈ 17.2 µM)
S. epidermidis (MRSE); [18]
  MIC: 6.25 µg/mL (≈ 17.2 µM)
S. epidermidis (MRSE); [19]
  MIC: 6.25 µg/mL (≈ 17.2 µM)
S. epidermidis (MRSE); [20]
  MIC: 6.25 µg/mL (≈ 17.2 µM)
S. epidermidis (MRSE); [21]
  MIC: 6.25 µg/mL (≈ 17.2 µM)
S. epidermidis (MRSE); [22]
  MIC: 12.5 µg/mL (≈ 34.3 µM)
S. epidermidis (MRSE); [23]
  MIC: 6.25 µg/mL (≈ 17.2 µM)
S. epidermidis (MRSE); [24]
  MIC: 6.25 µg/mL (≈ 17.2 µM)
S. epidermidis (MRSE); [25]
  MIC: 6.25 µg/mL (≈ 17.2 µM)
S. epidermidis (MRSE); [26]
  MIC: 6.25 µg/mL (≈ 17.2 µM)
S. epidermidis (MRSE); [27]
  MIC: 6.25 µg/mL (≈ 17.2 µM)
S. aureus ATCC 6538 [13]
  zone of inhibition at 400 µg/disc: 16 mm
BVDV
  EC50: > 27 µM
B. subtilis ATCC 6633 [14]
  MIC: 12.5 µg/mL (≈ 34.3 µM)
In vitro [15]
  CC50: 13 µM
Sb-1
  EC50: > 13 µM
VV
  EC50: > 13 µM
M. luteus ATCC 10240 [16]
  MIC: 6.25 µg/mL (≈ 17.2 µM)
[17]; [28]
  MIC: 6.25 µg/mL (≈ 17.2 µM)
[17]; [29]
  MIC: 6.25 µg/mL (≈ 17.2 µM)
[17]; [30]
  MIC: 6.25 µg/mL (≈ 17.2 µM)
[17]; [31]
  MIC: 6.25 µg/mL (≈ 17.2 µM)
[17]; [32]
  MIC: 6.25 µg/mL (≈ 17.2 µM)
[17]; [33]
  MIC: 6.25 µg/mL (≈ 17.2 µM)
[17]; [34]
  MIC: 6.25 µg/mL (≈ 17.2 µM)
[17]; [35]
  MIC: 6.25 µg/mL (≈ 17.2 µM)
[17]; [36]
  MIC: 6.25 µg/mL (≈ 17.2 µM)
[17]; [37]
  MIC: 6.25 µg/mL (≈ 17.2 µM)
S. aureus DNA gyrase; supercoiling of relaxed pBR322 DNA, 30 min, 37 °C, read-out: IC50 ± SEM, S. aureus DNA Gyrase (converted)
  IC50: 199 µM

## S=C(NCCc1c[nH]c2ccccc12)Nc1cccc(Cl)c1 [Compound 14, 1-(2-(1H-Indol-3-yl)ethyl)-3-(3-chlorophenyl)thiourea]
Reo-1
  EC50: > 6 µM
[1]
  MIC: 50 µg/mL (≈ 152 µM)
VSV
  EC50: > 32 µM
other
  melting point: 169 to 171 °C
[2]
  zone of inhibition at 400 µg/disc: 12 mm
In vitro [3]
  CC50: 42 µM
In vitro [4]
  CC50: 32 µM
S. aureus NCTC 4163 [5]
  MIC: 50 µg/mL (≈ 152 µM)
M. luteus ATCC 10240 [6]
  zone of inhibition at 400 µg/disc: 20 mm
S. aureus ATCC 6538 [7]
  MIC: 50 µg/mL (≈ 152 µM)
In vitro [8]
  CC50: 6 µM
S. aureus NCTC 4163 [9]
  zone of inhibition at 400 µg/disc: 13 mm
S. aureus ATCC 25923 [10]
  zone of inhibition at 400 µg/disc: 14 mm
HSV-1
  EC50: > 32 µM
S. aureus ATCC 29213
  MIC: 50 µg/mL (≈ 152 µM)
B. subtilis ATCC 6633 [11]
  zone of inhibition at 400 µg/disc: 12 mm
YFV
  EC50: > 6 µM
S. aureus ATCC 25923 [12]
  MIC: 50 µg/mL (≈ 152 µM)
CV-B5
  EC50: 9 ± 1.2 µM
B. cereus ATCC 11778
  MIC: 25 µg/mL (≈ 75.8 µM)
S. epidermidis (MRSE); [18]
  MIC: 25 µg/mL (≈ 75.8 µM)
S. epidermidis (MRSE); [19]
  MIC: 6.25 µg/mL (≈ 18.9 µM)
S. epidermidis (MRSE); [20]
  MIC: 25 µg/mL (≈ 75.8 µM)
S. epidermidis (MRSE); [21]
  MIC: 25 µg/mL (≈ 75.8 µM)
S. epidermidis (MRSE); [22]
  MIC: 25 µg/mL (≈ 75.8 µM)
S. epidermidis (MRSE); [23]
  MIC: 25 µg/mL (≈ 75.8 µM)
S. epidermidis (MRSE); [24]
  MIC: 50 µg/mL (≈ 152 µM)
S. epidermidis (MRSE); [25]
  MIC: 25 µg/mL (≈ 75.8 µM)
S. epidermidis (MRSE); [26]
  MIC: 50 µg/mL (≈ 152 µM)
S. epidermidis (MRSE); [27]
  MIC: 25 µg/mL (≈ 75.8 µM)
S. aureus ATCC 6538 [13]
  zone of inhibition at 400 µg/disc: 13 mm
BVDV
  EC50: > 32 µM
B. subtilis ATCC 6633 [14]
  MIC: 50 µg/mL (≈ 152 µM)
In vitro [15]
  CC50: 32 µM
Sb-1
  EC50: > 32 µM
VV
  EC50: > 32 µM
M. luteus ATCC 10240 [16]
  MIC: 12.5 µg/mL (≈ 37.9 µM)
[17]; [28]
  MIC: 25 µg/mL (≈ 75.8 µM)
[17]; [29]
  MIC: 25 µg/mL (≈ 75.8 µM)
[17]; [30]
  MIC: 25 µg/mL (≈ 75.8 µM)
[17]; [31]
  MIC: 25 µg/mL (≈ 75.8 µM)
[17]; [32]
  MIC: 12.5 µg/mL (≈ 37.9 µM)
[17]; [33]
  MIC: 25 µg/mL (≈ 75.8 µM)
[17]; [34]
  MIC: 25 µg/mL (≈ 75.8 µM)
[17]; [35]
  MIC: 25 µg/mL (≈ 75.8 µM)
[17]; [36]
  MIC: 25 µg/mL (≈ 75.8 µM)
[17]; [37]
  MIC: 25 µg/mL (≈ 75.8 µM)
S. aureus DNA gyrase; data not shown
  effect against DNA gyrase (in words): not significantly effective
